ChEMBL document CHEMBL1129948, “Synthesis and anti-trypanosomal activity of various 8-aza-7-deaza-5'noraristeromycin derivatives” (J Med Chem, 1997)
The source made the active and inactive calls. The rule behind the calls is not given here.

Tests used:
[1] = tested on: E6SM; experiment: Cytotoxic activity of compound against E6SM cell line; No toxicity; format: functional, cell-based; details: Homo sapiens
[2] = tested on: HEL; experiment: Cytotoxic activity of compound against HEL cell line; No toxicity; format: functional, cell-based; details: Homo sapiens
[3] = tested on: HeLa; experiment: Cytotoxic activity of compound against HeLa cell line; No toxicity; format: functional, cell-based; details: Homo sapiens
[4] = tested on: Trypanosoma brucei; experiment: (§1) Inhibition of growth of Trypanosoma uM); format: functional, organism-based
[5] = tested on: Trypanosoma brucei; experiment: as §1; format: functional, organism-based; remark: listed apart in the source
[6] = tested on: Trypanosoma brucei; experiment: as §1; format: functional, organism-based; remark: listed apart in the source
[7] = tested on: Trypanosoma brucei; experiment: as §1; format: functional, organism-based; remark: listed apart in the source
[8] = tested on: Vero; experiment: Cytotoxic activity of compound against Vero cell line; No toxicity; format: functional, cell-based; details: Chlorocebus sabaeus
[9] = tested on: Trypanosoma brucei; experiment: (§2) Inhibition of growth of Trypanosoma uM concentration; format: functional, organism-based
[10] = tested on: Trypanosoma brucei; experiment: as §2; format: functional, organism-based; remark: listed apart in the source
[11] = tested on: Trypanosoma brucei; experiment: as §2; format: functional, organism-based; remark: listed apart in the source
[12] = tested on: Trypanosoma brucei; experiment: as §2; format: functional, organism-based; remark: listed apart in the source
[13] = tested on: Trypanosoma brucei; experiment: as §2; format: functional
[14] = tested on: Trypanosoma brucei; experiment: as §2; format: functional; remark: listed apart in the source

Structure (SMILES) | Cytotoxic activity [1] | Cytotoxic activity [2] | Cytotoxic activity [3] | IC50 [4] [µM] | IC50 [5] [µM] | IC50 [6] [µM] | IC50 [7] [µM] | Cytotoxic activity [8] | IC50 [9] [µM] | IC50 [10] [µM] | IC50 [11] [µM] | IC50 [12] [µM] | Inhibition [13] [%] | Inhibition [14] [%]
C[C@@H]1C[C@H](n2ncc3c(N)ncnc32)[C@@H](O)[C@H]1O | No toxicity | No toxicity | No toxicity | > 100 | > 100 | > 100 | > 100 | No toxicity | – | – | – | – | – | –
Nc1ncnc2c1cnn2[C@H]1C=C[C@@H](O)C1 | No toxicity | No toxicity | No toxicity | > 100 | > 100 | > 100 | > 100 | No toxicity | – | – | – | – | – | –
Nc1ncnc2c1ccn2[C@H]1C[C@@H](O)[C@H](O)[C@@H]1O | inactive | inactive | Non-toxic | – | – | – | – | inactive | 0.85 | 5.3 | 1.55 | – | – | –
C[C@H]1C[C@@H](n2ncc3c(N)ncnc32)[C@H](O)[C@@H]1O | No toxicity | No toxicity | No toxicity | – | – | – | – | No toxicity | 12.2 | – | 14 | 16.8 | – | –
Nc1ncnc2c1cnn2[C@H]1C=C[C@H](O)[C@@H]1O | No toxicity | No toxicity | No toxicity | – | – | – | – | No toxicity | > 100 | – | – | > 100 | – | –
Nc1ncnc2c1cnn2[C@@H]1C=C[C@H](O)C1 | No toxicity | No toxicity | No toxicity | > 100 | > 100 | – | – | No toxicity | – | – | – | – | – | –
Nc1ncnc2c1cnn2[C@H]1C[C@@H](O)[C@H](O)[C@@H]1O | No toxicity | No toxicity | No toxicity | – | – | – | – | No toxicity | 53 | 72 | 67 | 44 | – | –
Nc1ncnc2c1cnn2[C@@H]1C=C[C@@H](O)[C@H]1O | No toxicity | No toxicity | No toxicity | > 100 | > 100 | > 100 | > 100 | No toxicity | – | – | – | – | – | –
Nc1ncnc2c1cnn2[C@@H]1C[C@H](O)[C@@H](O)[C@H]1O | No toxicity | No toxicity | No toxicity | > 100 | > 100 | – | – | No toxicity | – | – | – | – | – | –
Nc1ncnc2c1cnn2[C@H]1CC[C@H](O)[C@@H]1O | No toxicity | No toxicity | No toxicity | – | – | – | – | No toxicity | – | – | – | – | 23 | 37
Nc1ncnc2c1cnn2[C@@H]1CC[C@@H](O)[C@H]1O | No toxicity | No toxicity | No toxicity | > 100 | > 100 | > 100 | > 100 | No toxicity | – | – | – | – | – | –
